How the values were obtained:
[1] = target: Dop (deamidase of Pup), Dop-His6 (Mycobacterium tuberculosis, UniProt P9WNU9); details: for Km / kcat: Dop kinetics with synthetic substrate, n.a. = no activity
Source text: SoftMax Pro (Molecular Devices) was used to measure the data and GraphPad Prism was used to fit the kinetic data.

lysates of E. coli = assay: Hydrolysis of substrate in E. coli lysates; type: biochemical

Chain of Dop (deamidase of Pup), Dop-His6 (P9WNU9 whole entry): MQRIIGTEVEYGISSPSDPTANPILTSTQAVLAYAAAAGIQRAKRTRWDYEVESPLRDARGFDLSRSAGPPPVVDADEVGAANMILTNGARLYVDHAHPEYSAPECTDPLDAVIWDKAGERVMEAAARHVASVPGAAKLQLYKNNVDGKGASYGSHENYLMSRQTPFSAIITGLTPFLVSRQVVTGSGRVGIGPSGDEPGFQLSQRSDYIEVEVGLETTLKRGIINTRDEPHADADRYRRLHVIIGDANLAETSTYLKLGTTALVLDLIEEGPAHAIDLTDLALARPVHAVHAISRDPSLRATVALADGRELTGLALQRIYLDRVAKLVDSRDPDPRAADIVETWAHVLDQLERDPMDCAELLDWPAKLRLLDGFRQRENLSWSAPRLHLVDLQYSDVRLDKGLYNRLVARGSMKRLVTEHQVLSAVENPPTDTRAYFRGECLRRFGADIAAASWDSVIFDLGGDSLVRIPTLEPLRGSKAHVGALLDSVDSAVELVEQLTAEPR

| Substance | Km [1] [µM] | kcat [1] [s⁻¹] | hydrolytic activity of Dop on the substrate (cleavage of AMC) ([1]; increase in fluorescence over time) | hydrolysis of substrate in lysate (lysates of E. coli) |
| --- | --- | --- | --- | --- |
| EETDDLLDEIDDVLEENAEDFVRAYVQKGG-Glu(AMC) [1b] | 0.75 ± 0.08 | 0.0113 ± 0.00033 |  |  |
| MAQEQTKRGGGGGDDDDIAGSTAAGQERREKLTEETDDLLDEIDDV LEENAEDFVRAYVQKGG-Glu(AMC) [1a] | 0.65 ± 0.07 | 0.01 ± 0.00033 | showed hydrolytic activity | could not hydrolyze |
